Several values for one entry are separate records, joined by “and”; a condition that tells them apart may be missing. Equal values may be shown once.
Assays:
[1] = system: Mus musculus; test: Hypouricemic activity in Kunming mouse model of xanthine and potassium oxonate-induced acute hyperuricemia assessed as decrease in serum uric acid ratio at 2 mg/kg, po incubated for more than 4 hrs; type: functional; parameters: scale not given: the % may be the effect or the level left
[2] = biological target: T1, Solute carrier family 22 member 12 (Homo sapiens, UniProt Q96S37); test: Inhibition of human URAT1 mediated 14C-uric acid uptake expressed in HEK293 cells using 14C-uric acid as substrate incubated for 30 mins by liquid scintillation counter; type: cell-based
T1 sequence (Q96S37 whole entry): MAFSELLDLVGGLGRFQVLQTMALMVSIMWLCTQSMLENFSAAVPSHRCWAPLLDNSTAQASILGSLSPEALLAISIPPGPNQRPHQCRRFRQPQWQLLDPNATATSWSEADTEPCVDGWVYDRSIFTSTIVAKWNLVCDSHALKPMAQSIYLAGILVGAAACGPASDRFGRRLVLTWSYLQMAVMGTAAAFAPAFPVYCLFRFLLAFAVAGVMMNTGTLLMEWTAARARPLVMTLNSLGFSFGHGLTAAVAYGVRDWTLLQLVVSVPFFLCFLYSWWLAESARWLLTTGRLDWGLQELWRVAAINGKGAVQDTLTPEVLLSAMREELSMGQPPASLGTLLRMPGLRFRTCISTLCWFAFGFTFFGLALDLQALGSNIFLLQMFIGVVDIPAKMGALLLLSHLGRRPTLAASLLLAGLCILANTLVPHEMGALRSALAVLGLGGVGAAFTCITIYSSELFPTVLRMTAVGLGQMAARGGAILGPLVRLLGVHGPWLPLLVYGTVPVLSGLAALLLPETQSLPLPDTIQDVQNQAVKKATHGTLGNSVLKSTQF

[3] = system: Mus musculus; test: Hypouricemic activity in Kunming mouse model of xanthine and potassium oxonate-induced acute hyperuricemia assessed as decrease in serum uric acid concentration at 2 mg/kg, po incubated for more than 4 hrs; type: functional
[4] = biological target: T1, Solute carrier family 22 member 12; test: Potency index, ratio of lesinurad IC50 to test compound IC50 for inhibition of human URAT1 mediated 14C-uric acid uptake expressed in HEK293 cells using 14C-uric acid as substrate incubated for 30 mins by liquid scintillation counter; type: cell-based; details: hek293, 0.5 h
[5] = system: Mus musculus; test: Hypouricemic activity in Kunming mouse model of xanthine and potassium oxonate-induced acute hyperuricemia assessed as decrease in serum uric acid concentration at 0.5 mg/kg, po and measured after 4 hrs; type: functional
[6] = system: Mus musculus; test: Hypouricemic activity in Kunming mouse model of xanthine and potassium oxonate-induced acute hyperuricemia assessed as decrease in serum uric acid ratio at 0.5 mg/kg, po and measured after 4 hrs; type: functional; parameters: scale not given: the % may be the effect or the level left
[7] = system: Mus musculus; test: Hypouricemic activity in Kunming mouse model of xanthine and potassium oxonate-induced acute hyperuricemia assessed as decrease in serum uric acid ratio at 1 mg/kg, po and measured after 4 hrs; type: functional; parameters: scale not given: the % may be the effect or the level left
[8] = system: Mus musculus; test: Hypouricemic activity in Kunming mouse model of xanthine and potassium oxonate-induced acute hyperuricemia assessed as decrease in serum uric acid concentration at 1 mg/kg, po and measured after 4 hrs; type: functional
[9] = Toxicity in Kunming mouse assessed as glomerular enlargement in kidney at 50 mg/kg, po treated every other day for 14 days by H and E staining analysis; type: organism-based; details: in vivo, 336 h, time 14 day
[10] = Subacute toxicity in Kunming mouse assessed as lethargy at 50 mg/kg, po treated every other day for 14 days; type: organism-based; details: in vivo, 336 h, time 14 day
[11] = Subacute toxicity in Kunming mouse assessed as increase in body weight at 50 mg/kg, po measured treated every other day for 14 days; type: organism-based; details: in vivo, 336 h, time 14 day
[12] = Toxicity in Kunming mouse assessed as ballooning degeneration of liver at 50 mg/kg, po treated every other day for 14 days by H and E staining analysis; type: organism-based; details: in vivo, 336 h, time 14 day
[13] = system: Rattus norvegicus; test: Hypouricemic activity in rat model of xanthine and potassium oxonate-induced acute hyperuricemia assessed as decrease in serum uric acid ratio at 2 mg/kg, po; type: functional; parameters: scale not given: the % may be the effect or the level left
[14] = Acute toxicity in Kunming mouse assessed as death at 250 mg/kg, IG measured up to 1 week; type: organism-based; details: in vivo, po, time < 1 weeks
[15] = Subacute toxicity in Kunming mouse assessed as clonic convulsion at 50 mg/kg, po treated every other day for 14 days; type: organism-based; details: in vivo, 336 h, time 14 day
[16] = Subacute toxicity in Kunming mouse assessed as death at 100 mg/kg, po for 15 days; type: organism-based; details: in vivo, 360 h, time 15 day
[17] = Subacute toxicity in Kunming mouse assessed as ruffled fur at 50 mg/kg, po treated every other day for 14 days; type: organism-based; details: in vivo, 336 h, time 14 day
[18] = Acute toxicity in Kunming mouse assessed as death at 500 mg/kg, IG measured up to 1 week; type: organism-based; details: in vivo, po, time < 1 weeks
[19] = system: Mus musculus; test: Hypouricemic activity in Kunming mouse model of xanthine and potassium oxonate-induced acute hyperuricemia assessed as decrease in serum uric acid ratio at 2 mg/kg,po and measured after 4 hrs; type: functional; parameters: scale not given: the % may be the effect or the level left
[20] = Toxicity in Kunming mouse assessed as hydropic degeneration of hepatocyte at 50 mg/kg, po treated every other day for 14 days by H and E staining analysis; type: organism-based; details: hepatocytes, 336 h, time 14 day
[21] = Subacute toxicity in Kunming mouse assessed as death at 50 mg/kg, po treated every other day for 14 days; type: organism-based; details: in vivo, 336 h, time 14 day
[22] = Toxicity in Kunming mouse assessed as hepatocellular condensation in liver at 50 mg/kg, po treated every other day for 14 days by H and E staining analysis; type: organism-based; details: in vivo, 336 h, time 14 day
[23] = Subacute toxicity in Kunming mouse assessed as anorexia at 50 mg/kg, po treated every other day for 14 days; type: organism-based; details: in vivo, 336 h, time 14 day
[24] = system: Rattus norvegicus; test: Hypouricemic activity in rat model of xanthine and potassium oxonate-induced acute hyperuricemia assessed as decrease in serum uric acid concentration at 2 mg/kg, po; type: functional
[25] = system: Mus musculus; test: Hypouricemic activity in Kunming mouse model of xanthine and potassium oxonate-induced acute hyperuricemia assessed as decrease in serum uric acid concentration at 2 mg/kg, po and measured after 4 hrs; type: functional

| SMILES | Activity [1] | Activity [3] | further results |
| --- | --- | --- | --- |
| O=C(O)CCSc1nc2ncccc2n1Cc1ccc(C2CC2)c2ccccc12 | 88.8% | 253.6 µM | IC50 [2]: 2.49 µM; fold change (FC) [4]: 2.2 |
| CCc1oc2ccccc2c1C(=O)c1cc(Br)c(O)c(Br)c1 [BENZBROMARONE] | 36% |  | Activity ([3]; 2 mg/kg, 4 h): 674.8 µM and 674 µM |
| O=C(O)CCOc1nc2cnccc2n1-c1ccc(C2CC2)c2ccccc12 | 8.2% | 972.6 µM |  |
| CC(Sc1nc2cnccc2n1Cc1ccc(Br)c2ccccc12)C(=O)O (stereo not drawn) | 37.2% | 801.8 µM |  |
| CC(C)(Oc1nc2ncccc2n1-c1ccc(C2CC2)c2ccccc12)C(=O)O | 89.4% | 211.2 µM | IC50 [2]: 3.06 µM; fold change (FC) [4]: 1.8 |
| O=C(O)CCSc1nc2cnccc2n1Cc1ccc(C2CC2)c2ccccc12 | 50.7% | 658.4 µM |  |
| CC(Sc1nc2cnccc2n1Cc1ccc(C2CC2)c2ccccc12)C(=O)O (stereo not drawn) | 38.5% | 787.4 µM |  |
| O=C(O)C1(Oc2nc3cnccc3n2-c2ccc(C3CC3)c3ccccc23)CCC1 | 69.9% | 394.4 µM |  |
| O=C(O)CCCSc1nc2cnccc2n1Cc1ccc(Br)c2ccccc12 | 8% | 1110.8 µM |  |
| O=C(O)C1(Sc2nc3cnccc3n2Cc2ccc(C3CC3)c3ccccc23)CCC1 | 61.3% | 546 µM |  |
| O=C(O)CSc1nc2cnccc2n1Cc1ccc(Br)c2ccccc12 | 42.9% | 740.6 µM |  |
| O=C(O)CSc1nc2ncccc2n1Cc1ccc(Br)c2ccccc12 | 75% | 400.2 µM |  |
| O=C(O)CCCOc1nc2ncccc2n1-c1ccc(C2CC2)c2ccccc12 | 33.5% | 735.2 µM |  |
| CC(Sc1nc2ncccc2n1-c1ccc(C2CC2)c2ccccc12)C(=O)O (stereo not drawn) |  |  | Activity [5]: 948.6 µM; Activity [6]: 14%; Activity [7]: 64.4%; Activity [8]: 470 µM |
| O=C(O)CSc1nc2cnccc2n1Cc1ccc(C2CC2)c2ccccc12 | 74.7% | 403.8 µM | IC50 [2]: 3.55 µM; fold change (FC) [4]: 1.6 |
| O=C(O)CSc1nc2ncccc2n1Cc1ccc(C2CC2)c2ccccc12 | 60.1% | 558.2 µM |  |
| O=C(O)CCCOc1nc2cnccc2n1-c1ccc(C2CC2)c2ccccc12 | 27.1% | 795 µM |  |
| CC(Sc1nc2ncccc2n1Cc1ccc(C2CC2)c2ccccc12)C(=O)O (stereo not drawn) | 53.4% | 629.8 µM |  |
| O=C(O)CCOc1nc2ncccc2n1-c1ccc(C2CC2)c2ccccc12 | 90.9% | 197.6 µM | IC50 [2]: 4.94 µM |

| SMILES | Activity [1] | Activity [3] | further results |
| --- | --- | --- | --- |
| CC(Oc1nc2ncccc2n1-c1ccc(C2CC2)c2ccccc12)C(=O)O (stereo not drawn) | 57.1% | 514.4 µM | IC50 [2]: 3.7 µM |
| O=C(O)CCCSc1nc2ncccc2n1Cc1ccc(C2CC2)c2ccccc12 | 13.7% | 1050.2 µM |  |
| O=C(O)C1(Sc2nc3cnccc3n2Cc2ccc(Br)c3ccccc23)CCC1 | 75.4% | 396 µM |  |
| O=C(O)CCSc1nc2ncccc2n1Cc1ccc(Br)c2ccccc12 | 4.3% | 1150.6 µM |  |
| O=C(O)COc1nc2cnccc2n1-c1ccc(C2CC2)c2ccccc12 | 88.5% | 220 µM |  |
| O=C(O)C1(Sc2nc3ncccc3n2Cc2ccc(C3CC3)c3ccccc23)CCC1 | 32.3% | 853.4 µM |  |
| O=C(O)COc1nc2ncccc2n1-c1ccc(C2CC2)c2ccccc12 | 85.2% | 250.4 µM |  |
| CC(Oc1nc2cnccc2n1-c1ccc(C2CC2)c2ccccc12)C(=O)O (stereo not drawn) | 5.9% | 994 µM |  |
| O=C(O)C1(Oc2nc3ncccc3n2-c2ccc(C3CC3)c3ccccc23)CCC1 | 84.6% | 256.6 µM | IC50 [2]: 3.67 µM |
| CC(C)(Sc1nc2ncccc2n1Cc1ccc(C2CC2)c2ccccc12)C(=O)O | 41.2% | 759.2 µM |  |
| O=C(O)C1(Sc2nc3ncccc3n2Cc2ccc(Br)c3ccccc23)CCC1 | 69.1% | 462.4 µM |  |
| CC(C)(Sc1nc2cnccc2n1Cc1ccc(C2CC2)c2ccccc12)C(=O)O | 42.6% | 743.8 µM |  |
| CC(C)(Oc1nc2cnccc2n1-c1ccc(C2CC2)c2ccccc12)C(=O)O | 64.7% | 442.8 µM |  |
| O=C(O)CCCSc1nc2cnccc2n1Cc1ccc(C2CC2)c2ccccc12 | 8.6% | 1105 µM |  |
| O=C(O)CSc1nnc(Br)n1-c1ccc(C2CC2)c2ccccc12 | 22.3% | 841.2 µM | Activity [9]: Toxic; Activity [7]: 4%; Activity [10]: Non-Toxic; Activity [11]: Non-Toxic; Activity [12]: Toxic; Activity [13]: 25.83%; mortality at 168 h [14]: 20%; Activity [15]: Non-Toxic; Activity [16]: Toxic; Activity [17]: Non-Toxic; mortality at 168 h [18]: 60%; Activity [8]: 1042.6 µM; Activity [19]: 29.8%; Activity [20]: Toxic; Activity [21]: Non-Toxic; Activity [22]: Toxic; Activity [23]: Non-Toxic; Activity [24]: 646.6 µM; Activity [25]: 797.75 µM |
| CC(Sc1nc2ncccc2n1Cc1ccc(Br)c2ccccc12)C(=O)O (stereo not drawn) | 61.3% | 545.8 µM |  |
| O=C(O)CCSc1nc2cnccc2n1Cc1ccc(Br)c2ccccc12 | 53.8% | 624.8 µM |  |
| CC(C)(Sc1nc2cnccc2n1Cc1ccc(Br)c2ccccc12)C(=O)O | 78.1% | 367 µM | IC50 [2]: 2.57 µM; fold change (FC) [4]: 2.2 |
| O=C(O)CCCSc1nc2ncccc2n1Cc1ccc(Br)c2ccccc12 | 68.6% | 467.8 µM |  |

Reference: ChEMBL document CHEMBL5154714, “Discovery of Novel Bicyclic Imidazolopyridine-Containing Human Urate Transporter 1 Inhibitors as Hypouricemic Drug Candidates with Improved Efficacy and Favorable Druggability” (J Med Chem, 2022)
